Assay results: PubChem BioAssay AID1259411 (Chemical Carcinogenesis Research Information System (CCRIS), 2018)
Active and inactive are the calls of the source. The rule behind the calls is not given here.

Test system: rodent carcinogenicity bioassays, tumor incidence
Experiment: CCRIS carcinogenicity studies
Procedure, shortened: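 Archive of carcinogenicity, mutagenicity, tumor promotion and tumor inhibition results drawn from journals, NCI reports and other sources, expert-reviewed; covers 1985-2011 and is no longer updated.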

CC(C)[C@H](C(=O)O[C@H](C#N)c1cccc(Oc2ccccc2)c1)c1ccc(Cl)cc1
carcinogen call (Species: Mouse, Strain/Sex: Crl:CD-17BR/Female (80/Group), Route: Oral, Dose: 0, 35, 150 ppm in diet for 18 mo, study duration 18 mo, Dose: 0, 35, 150 ppm in diet for 18 mo, study duration 18 mo): inactive; negative. a 350 ppm group was terminated at study day 58 due to self-trauma and | carcinogen call (Species: Mouse, Strain/Sex: Crl:CD-17BR/Male (80/Group), Route: Oral, Dose: 0, 35, 150 ppm in diet for 18 mo, study duration 18 mo, Dose: 0, 35, 150 ppm in diet for 18 mo, study duration 18 mo): inactive; negative. a 350 ppm group was terminated at study day 58 due to self-trauma and

OCC(Br)CBr (configuration not stated)
carcinogen call (Species: MOUSE, Strain/Sex: B6C3F1/FEMALE, Route: DERMAL, Dose: 0, 188, 375 MG/KG IN ETHANOL APPLIED TO SUBSCAPULAR SKIN 5 D/WK FOR 39-42 WK (STUDY DURATION: 42 WK), Dose: 0, 188, 375 MG/KG IN ETHANOL APPLIED TO SUBSCAPULAR SKIN 5 D/WK FOR 39-42 WK (STUDY DURATION: 42 WK), Tumor Site: Type of Lesion: SKIN: SQUAMOUS CELL PAPILLOMA, FORESTOMACH: SQUAMOUS CELL PAPILLOMA, SQUAMOUS CELL CARCINOMA): active; positive | carcinogen call (Species: MOUSE, Strain/Sex: B6C3F1/MALE, Route: DERMAL, Dose: 0, 188, 375 MG/KG IN ETHANOL APPLIED TO SUBSCAPULAR SKIN 5 D/WK FOR 36-39 WK (STUDY DURATION: 42 WK), Dose: 0, 188, 375 MG/KG IN ETHANOL APPLIED TO SUBSCAPULAR SKIN 5 D/WK FOR 36-39 WK (STUDY DURATION: 42 WK), Tumor Site: Type of Lesion: SKIN: SQUAMOUS CELL PAPILLOMA, FORESTOMACH: SQUAMOUS CELL PAPILLOMA, LUNG: ALVEOLAR/BRONCHIOLAR ADENOMA, LIVER: HEPATOCE, Tumor Site: Type of Lesion: SKIN: SQUAMOUS CELL PAPILLOMA, FORESTOMACH: SQUAMOUS CELL PAPILLOMA, LUNG: ALVEOLAR/BRONCHIOLAR ADENOMA, LIVER: HEPATOCE): active; positive | carcinogen call (Species: RAT, Strain/Sex: F344/FEMALE, Route: DERMAL, Dose: 0, 188, 375 MG/KG IN ETHANOL APPLIED TO SUBSCAPULAR SKIN 5 D/WK FOR 52-55 WK (STUDY DURATION: 56 WK), Dose: 0, 188, 375 MG/KG IN ETHANOL APPLIED TO SUBSCAPULAR SKIN 5 D/WK FOR 52-55 WK (STUDY DURATION: 56 WK), Tumor Site: Type of Lesion: SKIN: SQUAMOUS CELL PAPILLOMA OR CARCINOMA, BASAL CELL TUMOR, KERATOACANTHOMA, ORAL MUCOSA: SQUAMOUS CELL PAPILLOMA, SQU): active; positive | carcinogen call (Species: RAT, Strain/Sex: F344/MALE, Route: DERMAL, Dose: 0, 188, 375 MG/KG IN ETHANOL APPLIED TO SUBSCAPULAR SKIN 5 D/WK FOR 48-51 WK (STUDY DURATION: 56 WK), Dose: 0, 188, 375 MG/KG IN ETHANOL APPLIED TO SUBSCAPULAR SKIN 5 D/WK FOR 48-51 WK (STUDY DURATION: 56 WK), Tumor Site: Type of Lesion: SKIN: SQUAMOUS CELL PAPILLOMA OR CARCINOMA, BASAL CELL TUMOR, SEBACEOUS ADENOMA, KERATOACANTHOMA, ORAL MUCOSA: SQUAMOUS): active; positive

NC(=O)/C(=C\c1ccc([N+](=O)[O-])o1)c1ccco1
carcinogen call (Species: HAMSTER, Strain/Sex: SYRIAN/MALE, Route: ORAL, Dose: 0.25% IN DIET, Tumor Site: Type of Lesion: FORESTOMACH: PAPILLOMA, SQUAMOUS CELL CARCINOMA, BILE DUCT: ADENOMA): active; positive | carcinogen call (Species: MOUSE, Strain/Sex: CD-1/MALE,FEMALE, Route: ORAL, Dose: 0.4% IN DIET FOR 18 MO, Tumor Site: Type of Lesion: FORESTOMACH: PAPILLOMA, SQUAMOUS CELL CARCINOMA): active; positive | carcinogen call (Species: MOUSE, Strain/Sex: DDY/MALE, Route: ORAL, Dose: 0.25% IN DIET FOR 308 DAYS, Tumor Site: Type of Lesion: FORESTOMACH: SQUAMOUS CELL CARCINOMA): active; positive | carcinogen call (Species: MOUSE, Strain/Sex: ICR/MALE,FEMALE, Route: ORAL, Dose: 0.08, 0.4% IN DIET FOR 440 DAYS, Tumor Site: Type of Lesion: FORESTOMACH: PAPILLOMA, SQUAMOUS CELL CARCINOMA): active; positive | carcinogen call (Species: RAT, Strain/Sex: WISTAR/FEMALE, Route: ORAL, Dose: 0.08, 0.4% IN DIET FOR 18 MO, Tumor Site: Type of Lesion: MAMMARY GLAND: ADENOCARCINOMA, FORESTOMACH: PAPILLOMA): active; positive | carcinogen call (Species: RAT, Strain/Sex: WISTAR/MALE, Route: ORAL, Dose: 0.4% IN DIET FOR 18 MO, Tumor Site: Type of Lesion: FORESTOMACH: PAPILLOMA): active; positive

O=C1OC2(c3ccccc31)c1cc(Br)c(O)c(Br)c1Oc1c2cc(Br)c(O)c1Br
carcinogen call (Species: MOUSE, Strain/Sex: ICR/FEMALE, Route: DERMAL, Dose: 0, 1 MG IN 0.1 ML DISTILLED WATER 2/WK FOR A MEAN TOTAL DOSE OF 140.1 MG (STUDY DURATION: 18 MO)): inactive; negative | carcinogen call (Species: MOUSE, Strain/Sex: ICR/MALE, Route: DERMAL, Dose: 0, 1 MG IN 0.1 ML DISTILLED WATER 2/WK FOR A MEAN TOTAL DOSE OF 140.1 MG (STUDY DURATION: 18 MO)): inactive; negative

O=C1C=CC(=O)C(c2ccccc2)=C1
carcinogen call (Species: MOUSE, Strain/Sex: CD-1/FEMALE, Route: DERMAL, Dose: 0, 1 MG IN DMSO 5/D WK FOR 40 WK (STUDY DURATION: 40 WK)): inactive; negative | carcinogen call (Species: RAT, Strain/Sex: F344/FEMALE, Route: INTRAVESICULAR, Dose: 0, 1% IN 0.2 ML SALINE 2/WK FOR 5 WK (STUDY DURATION: 36 WK)): inactive; negative

CC1OCCN1N=O (configuration not stated)
carcinogen call (Species: RAT, Strain/Sex: F344/FEMALE, Route: ORAL, Dose: 40 MG/L IN DRINKING WATER FOR 50 WK, Tumor Site: Type of Lesion: LIVER: HEPATOCELLULAR CARCINOMA, HEMANGIOENDOTHELIAL SARCOMA): active; positive

CNC(=O)Oc1cccc2c1OC(C)(C)O2
carcinogen call (Species: Mouse, Strain/Sex: CD-1/Female, Route: Oral, Dose: 0, 50, 250, 1250 ppm in diet for 94 wks, Dose: 0, 50, 250, 1250 ppm in diet for 94 wks): inactive; negative; purity 92.7% | carcinogen call (Species: Mouse, Strain/Sex: CD-1/Male, Route: Oral, Dose: 0, 50, 250, 1250 ppm in diet for 89 wks, Dose: 0, 50, 250, 1250 ppm in diet for 89 wks): inactive; negative; purity 92.7%

COc1cc(OC)nc(NC(=O)NS(=O)(=O)c2cc(NC=O)ccc2C(=O)N(C)C)n1
carcinogen call (Species: Mouse, Strain/Sex: Crl:CD-1(ICR)BR/Female (51/Group), Route: Oral, Dose: 0, 40, 800, 8000 ppm of 94.6% foramsulfuron in diet for 80 wk, study duration 80 wk, Dose: 0, 40, 800, 8000 ppm of 94.6% foramsulfuron in diet for 80 wk, study duration 80 wk): inactive; negative | carcinogen call (Species: Mouse, Strain/Sex: Crl:CD-1(ICR)BR/Male (51/Group), Route: Oral, Dose: 0, 40, 800, 8000 ppm of 94.6% foramsulfuron in diet for 80 wk, study duration 80 wk, Dose: 0, 40, 800, 8000 ppm of 94.6% foramsulfuron in diet for 80 wk, study duration 80 wk): inactive; negative | carcinogen call (Species: Rat, Strain/Sex: Sprague Dawley CRL:CD (IGS) BR/Female (50/Group), Route: Oral, Dose: 0, 100, 600, 6000, 20,000 ppm of 94.6% foramsulfuron in diet for 104 wk, study duration 104 wk, Dose: 0, 100, 600, 6000, 20,000 ppm of 94.6% foramsulfuron in diet for 104 wk, study duration 104 wk): inactive; negative | carcinogen call (Species: Rat, Strain/Sex: Sprague Dawley CRL:CD (IGS) BR/Male (50/Group), Route: Oral, Dose: 0, 100, 600, 6000, 20,000 ppm of 94.6% foramsulfuron in diet for 104 wk, study duration 104 wk, Dose: 0, 100, 600, 6000, 20,000 ppm of 94.6% foramsulfuron in diet for 104 wk, study duration 104 wk): inactive; negative

COC(=O)N(C(=O)N1CO[C@@]2(C(=O)OC)Cc3cc(Cl)ccc3C2=N1)c1ccc(OC(F)(F)F)cc1
carcinogen call (Species: Mouse, Strain/Sex: Crl:CD-1(ICR)BR/Female (70/Group), Route: Oral, Dose: 0, 20, 100, 125/150/200 ppm for 18 mo, study duration 18 mo, Dose: 0, 20, 100, 125/150/200 ppm for 18 mo, study duration 18 mo): inactive; negative | carcinogen call (Species: Mouse, Strain/Sex: Crl:CD-1(ICR)BR/Male (70/Group), Route: Oral, Dose: 0, 20, 100, 125/150/200 ppm for 18 mo, study duration 18 mo, Dose: 0, 20, 100, 125/150/200 ppm for 18 mo, study duration 18 mo): inactive; negative

O[C@@H]1c2ccccc2-c2nc3ccccc3cc2[C@H]1O
carcinogen call (Species: MOUSE, Strain/Sex: SWISS/FEMALE, Route: INTRAPERITONEAL, Dose: 0, 1.05 UMOL GIVEN AS 150 NMOL IN 5 µL DMSO WITHIN 24 HR OF BIRTH, 300 NMOL IN 10 µL DMSO ON D 8 OF LIFE, AND 600 NMOL I): inactive; negative | carcinogen call (Species: MOUSE, Strain/Sex: SWISS/MALE, Route: INTRAPERITONEAL, Dose: 0, 1.05 UMOL GIVEN AS 150 NMOL IN 5 µL DMSO WITHIN 24 HR OF BIRTH, 300 NMOL IN 10 µL DMSO ON D 8 OF LIFE, AND 600 NMOL I): inactive; negative
